{"source": "paper PMC8246850", "about": "“Functional selective FPR1 signaling in favor of an activation of the neutrophil superoxide generating NOX2 complex” (Journal of Leukocyte Biology, 2020)", "target": "T1, FPR1 (Homo sapiens, UniProt P21462)", "T1 sequence (P21462 1-350)": "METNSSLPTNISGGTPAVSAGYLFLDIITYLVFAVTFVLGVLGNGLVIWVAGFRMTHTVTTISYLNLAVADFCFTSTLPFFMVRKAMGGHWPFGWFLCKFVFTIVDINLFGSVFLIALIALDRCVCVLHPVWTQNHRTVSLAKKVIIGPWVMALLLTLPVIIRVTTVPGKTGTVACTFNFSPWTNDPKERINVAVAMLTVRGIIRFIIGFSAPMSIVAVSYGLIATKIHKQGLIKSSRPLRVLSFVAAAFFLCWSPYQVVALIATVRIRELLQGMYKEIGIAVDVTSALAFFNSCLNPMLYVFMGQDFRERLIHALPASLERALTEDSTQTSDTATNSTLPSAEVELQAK", "assay": "human neutrophil NADPH-oxidase (superoxide) and Ca2+ assays with FPR1/FPR2 antagonists and cross-desensitization; weak β-arrestin recruitment in FPR1 CHO cells", "assay_type": "cell-based"}
{"substance": "RE-04-001", "values": [{"measurement": "EC50", "result": "~1", "unit": "nM"}]}
